Target: T1, 14-3-3σ (Homo sapiens, UniProt P31947)
T1 construct: gene SFN; with ERα phospho-peptide (588AEGFPApTV595 in the crystal)
T1 sequence (P31947 1-248): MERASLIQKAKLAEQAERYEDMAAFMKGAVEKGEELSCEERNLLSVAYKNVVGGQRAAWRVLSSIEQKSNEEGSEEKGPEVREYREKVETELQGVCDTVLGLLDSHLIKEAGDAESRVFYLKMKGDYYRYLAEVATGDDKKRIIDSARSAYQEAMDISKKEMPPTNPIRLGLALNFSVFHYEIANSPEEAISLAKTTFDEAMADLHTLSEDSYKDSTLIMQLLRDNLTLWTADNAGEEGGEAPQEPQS
Assay: crystal structure with ERα phospho-peptide and […]; FP dose-response and ITC stabilisation
Format: binding

Question: `C=CC(C)(C)OC[C@H]1O[C@H](O[C@@H]2C3=C([C@H](C)COC(C)=O)C[C@H](O)[C@]3(C)/C=C3/[C@@H](COC)CC[C@H]3[C@@H](C)[C@H]2O)[C@H](O)[C@@H](OC(C)=O)[C@@H]1O` [compound 1, fusicoccin A] was tested. Which EC50 did it give?
Answer: 880 nM

— article PMC8513901, “Cooperative stabilisation of 14-3-3σ protein–protein interactions via covalent protein modification” (Chemical Science, 2021)
